The source made the active and inactive calls. The calls are words filed in the database; no cut-off is given here.
Key:
[1] = target: Calcium/calmodulin-dependent protein kinase type 1 (Homo sapiens) (UniProt Q14012); assay: CaMKI Kinase panel; settings: Compound concentration 1.0 uM
[2] = target: D(1B) dopamine receptor (Homo sapiens) (UniProt P21918); settings: Compound concentration 10.0 uM
[3] = target: 5-hydroxytryptamine receptor 1A (Homo sapiens) (UniProt P08908); settings: Compound concentration 10.0 uM
[4] = target: Casein kinase I isoform alpha (Homo sapiens) (UniProt P48729); assay: CK1_alpha1 Kinase panel; settings: Compound concentration 1.0 uM
[5] = target: Mitogen-activated protein kinase kinase kinase kinase 4 (Homo sapiens, UniProt O95819); assay: MAP4K4 Kinase panel
[6] = target: Protein-tyrosine kinase 6 (Homo sapiens) (UniProt Q13882); assay: Brk Kinase panel; settings: Compound concentration 1.0 uM
[7] = target: Protein kinase C delta type (Homo sapiens) (UniProt Q05655); assay: PKC_delta Kinase panel; settings: Compound concentration 1.0 uM
[8] = target: Homeodomain-interacting protein kinase 4 (Homo sapiens) (UniProt Q8NE63); assay: HIPK4 Kinase panel; settings: Compound concentration 1.0 uM
[9] = target: Histamine H4 receptor (Homo sapiens) (UniProt Q9H3N8); settings: Compound concentration 10.0 uM
[10] = tested on: Epidermal growth factor receptor (Homo sapiens), P00533 [L858R,T790M]; assay: EGFR(T790M,L8 58R) Kinase panel; settings: Compound concentration 1.0 uM
[11] = target: Myosin light chain kinase, smooth muscle (Homo sapiens) (UniProt Q15746); assay: MYLK(smMLCK) Kinase panel; settings: Compound concentration 1.0 uM
[12] = target: Beta-1 adrenergic receptor (Homo sapiens) (UniProt P08588); settings: Compound concentration 10.0 uM
[13] = target: Ephrin type-A receptor 7 (Homo sapiens) (UniProt Q15375); assay: EphA7 Kinase panel; settings: Compound concentration 1.0 uM
[14] = target: Protein kinase C theta type (Homo sapiens) (UniProt Q04759); assay: PKC_theta Kinase panel; settings: Compound concentration 1.0 uM
[15] = target: Serine/threonine-protein kinase Nek1 (Homo sapiens) (UniProt Q96PY6); assay: NEK1 Kinase panel; settings: Compound concentration 1.0 uM
[16] = target: Mitogen-activated protein kinase kinase kinase kinase 5 (Homo sapiens) (UniProt Q9Y4K4); assay: KHS1 Kinase panel; settings: Compound concentration 1.0 uM
[17] = target: Angiopoietin-1 receptor (Homo sapiens) (UniProt Q02763); assay: Tie2 Kinase panel; settings: Compound concentration 1.0 uM
[18] = target: Alpha-2A adrenergic receptor (Homo sapiens) (UniProt P08913); settings: Compound concentration 10.0 uM
[19] = target: Mitogen-activated protein kinase kinase kinase kinase 1 (Homo sapiens) (UniProt Q92918); assay: HPK1 Kinase panel; settings: Compound concentration 1.0 uM
[20] = target: Histamine H2 receptor (Homo sapiens) (UniProt P25021); settings: Compound concentration 10.0 uM
[21] = target: Maternal embryonic leucine zipper kinase (Homo sapiens) (UniProt Q14680); assay: MELK Kinase panel; settings: Compound concentration 1.0 uM
[22] = target: Serine/threonine-protein kinase Chk2 (Homo sapiens) (UniProt O96017); assay: CHK2 Kinase panel; settings: Compound concentration 1.0 uM
[23] = target: Casein kinase I isoform delta (Homo sapiens) (UniProt P48730); assay: CK1_delta Kinase panel; settings: Compound concentration 1.0 uM
[24] = target: Tyrosine-protein kinase BTK (Homo sapiens) (UniProt Q06187); assay: BTK Kinase panel; settings: Compound concentration 1.0 uM
[25] = target: Ephrin type-B receptor 1 (Homo sapiens) (UniProt P54762); assay: EphB1 Kinase panel; settings: Compound concentration 1.0 uM
[26] = target: Serine/threonine-protein kinase Sgk1 (Homo sapiens) (UniProt O00141); assay: SGK1 Kinase panel; settings: Compound concentration 1.0 uM
[27] = target: CDK9/cyclin T1 (Homo sapiens) (UniProt O60563+P50750); assay: CDK9/cyclinT1 Kinase panel; type: protein-complex assay; settings: Compound concentration 1.0 uM
[28] = target: Proto-oncogene tyrosine-protein kinase Src (Homo sapiens) (UniProt P12931); assay: Src Kinase panel; settings: Compound concentration 1.0 uM
[29] = target: Tyrosine-protein kinase ITK/TSK (Homo sapiens) (UniProt Q08881); assay: ITK Kinase panel; settings: Compound concentration 1.0 uM
[30] = target: Protein kinase C epsilon type (Homo sapiens) (UniProt Q02156); assay: PKC_epsilon Kinase panel; settings: Compound concentration 1.0 uM
[31] = target: Dual specificity protein kinase CLK1 (Homo sapiens) (UniProt P49759); assay: CLK1 Kinase panel; settings: Compound concentration 1.0 uM
[32] = target: Fibroblast growth factor receptor 1 (Homo sapiens) (UniProt P11362); assay: FGFR1 Kinase panel; settings: Compound concentration 1.0 uM
[33] = target: Macrophage colony-stimulating factor 1 receptor (Homo sapiens) (UniProt P07333); assay: CSF1R Kinase panel; settings: Compound concentration 1.0 uM
[34] = target: Fibroblast growth factor receptor 3 (Homo sapiens) (UniProt P22607); assay: FGFR3 Kinase panel; settings: Compound concentration 1.0 uM
[35] = target: Ribosomal protein S6 kinase beta-1 (Homo sapiens) (UniProt P23443); assay: p70S6K Kinase panel; settings: Compound concentration 1.0 uM
Misshapen-like kinase 1 = Misshapen-like kinase 1 (Homo sapiens, UniProt Q8N4C8); assay: Mink1 Kinase panel
[36] = target: Interleukin-1 receptor-associated kinase 4 (Homo sapiens, UniProt Q9NWZ3); assay: NanoBRET assay (IRAK4, SGC Frankfurt)
[37] = target: Macrophage-stimulating protein receptor (Homo sapiens) (UniProt Q04912); assay: Ron Kinase panel; settings: Compound concentration 1.0 uM
[38] = target: SRSF protein kinase 3 (Homo sapiens) (UniProt Q9UPE1); assay: MSSK1 Kinase panel; settings: Compound concentration 1.0 uM
[39] = target: MAP kinase-interacting serine/threonine-protein kinase 1 (Homo sapiens) (UniProt Q9BUB5); assay: MKNK1 Kinase panel; settings: Compound concentration 1.0 uM
[40] = target: GABA-A receptor; anion channel (Rattus norvegicus) (UniProt O09028+P15431+P18506+P18508+P19969+P20236+P23574+P23576+P28471+P28473+P30191+P62813+P63079+P63138+Q91ZM7+Q9ES14); settings: Compound concentration 10.0 uM
[41] = target: Calcium/calmodulin-dependent protein kinase kinase 2 (Homo sapiens) (UniProt Q96RR4); assay: CAMKK2 Kinase panel; settings: Compound concentration 1.0 uM
[42] = target: Tyrosine-protein kinase Lyn (Homo sapiens) (UniProt P07948); assay: Lyn Kinase panel; settings: Compound concentration 1.0 uM
[43] = target: SRSF protein kinase 1 (Homo sapiens) (UniProt Q96SB4); assay: SRPK1 Kinase panel; settings: Compound concentration 1.0 uM
[44] = target: 5-hydroxytryptamine receptor 1E (Homo sapiens) (UniProt P28566); settings: Compound concentration 10.0 uM
[45] = target: Tyrosine-protein kinase Lck (Homo sapiens) (UniProt P06239); assay: Lck Kinase panel; settings: Compound concentration 1.0 uM
[46] = target: Sigma non-opioid intracellular receptor 1 (Homo sapiens) (UniProt Q99720); settings: Compound concentration 10.0 uM
[47] = target: Tyrosine-protein kinase receptor UFO (Homo sapiens) (UniProt P30530); assay: Axl Kinase panel; settings: Compound concentration 1.0 uM
[48] = target: Dual specificity protein kinase TTK (Homo sapiens) (UniProt P33981); assay: TTK Kinase panel; settings: Compound concentration 1.0 uM
[49] = target: Mitogen-activated protein kinase 13 (Homo sapiens) (UniProt O15264); assay: p38_delta Kinase panel; settings: Compound concentration 1.0 uM
[50] = target: Mitogen-activated protein kinase kinase kinase 10 (Homo sapiens) (UniProt Q02779); assay: MLK2 Kinase panel; settings: Compound concentration 1.0 uM

Sequence of Interleukin-1 receptor-associated kinase 4 (Q9NWZ3 whole entry): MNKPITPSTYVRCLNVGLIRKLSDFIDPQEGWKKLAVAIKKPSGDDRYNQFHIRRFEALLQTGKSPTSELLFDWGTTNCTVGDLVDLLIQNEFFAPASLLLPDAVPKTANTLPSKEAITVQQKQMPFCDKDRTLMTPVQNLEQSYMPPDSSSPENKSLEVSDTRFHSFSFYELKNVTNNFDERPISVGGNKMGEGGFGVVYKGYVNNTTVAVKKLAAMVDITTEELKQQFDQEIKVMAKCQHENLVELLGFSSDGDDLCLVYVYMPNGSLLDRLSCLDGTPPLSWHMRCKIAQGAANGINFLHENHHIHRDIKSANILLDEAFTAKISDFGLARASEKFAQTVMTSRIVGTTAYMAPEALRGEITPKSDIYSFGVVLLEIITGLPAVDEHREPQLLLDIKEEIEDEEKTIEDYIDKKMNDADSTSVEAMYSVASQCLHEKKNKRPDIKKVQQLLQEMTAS
Sequence of Maternal embryonic leucine zipper kinase (Homo sapiens) (Q14680 whole entry, looked up): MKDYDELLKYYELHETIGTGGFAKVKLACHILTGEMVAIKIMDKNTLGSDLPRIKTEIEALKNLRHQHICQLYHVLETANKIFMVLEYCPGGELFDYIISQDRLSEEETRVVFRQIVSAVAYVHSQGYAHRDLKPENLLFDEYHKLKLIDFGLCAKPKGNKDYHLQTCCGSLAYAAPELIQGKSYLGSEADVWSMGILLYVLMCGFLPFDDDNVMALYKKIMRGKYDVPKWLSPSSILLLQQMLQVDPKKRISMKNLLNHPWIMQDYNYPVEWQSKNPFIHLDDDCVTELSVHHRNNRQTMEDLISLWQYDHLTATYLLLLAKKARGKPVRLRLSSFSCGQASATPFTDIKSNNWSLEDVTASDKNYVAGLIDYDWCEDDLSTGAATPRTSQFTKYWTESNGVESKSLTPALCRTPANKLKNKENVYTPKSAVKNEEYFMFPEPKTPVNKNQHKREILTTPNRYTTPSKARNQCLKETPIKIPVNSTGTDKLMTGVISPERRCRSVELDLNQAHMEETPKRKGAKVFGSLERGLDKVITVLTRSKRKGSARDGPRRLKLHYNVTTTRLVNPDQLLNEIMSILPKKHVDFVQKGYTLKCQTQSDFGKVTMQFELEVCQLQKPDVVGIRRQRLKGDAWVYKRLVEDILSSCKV
Sequence of Tyrosine-protein kinase Lck (Homo sapiens) (P06239 2-509 limits assumed): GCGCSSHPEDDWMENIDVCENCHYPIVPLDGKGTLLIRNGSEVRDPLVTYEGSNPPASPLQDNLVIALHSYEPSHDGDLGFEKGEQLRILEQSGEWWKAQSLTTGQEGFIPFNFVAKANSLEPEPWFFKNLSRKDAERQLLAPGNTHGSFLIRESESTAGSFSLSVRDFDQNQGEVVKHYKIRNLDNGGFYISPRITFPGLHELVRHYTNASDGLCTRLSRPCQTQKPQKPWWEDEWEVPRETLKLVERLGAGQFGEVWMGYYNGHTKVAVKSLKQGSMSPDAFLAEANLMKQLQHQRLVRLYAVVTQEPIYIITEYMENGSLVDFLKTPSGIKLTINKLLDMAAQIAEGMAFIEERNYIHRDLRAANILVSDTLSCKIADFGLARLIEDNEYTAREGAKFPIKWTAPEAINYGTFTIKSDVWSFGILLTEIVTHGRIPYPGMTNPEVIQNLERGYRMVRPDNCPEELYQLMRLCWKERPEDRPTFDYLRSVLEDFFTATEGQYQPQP
Sequence of Tyrosine-protein kinase BTK (Homo sapiens) (Q06187 whole entry): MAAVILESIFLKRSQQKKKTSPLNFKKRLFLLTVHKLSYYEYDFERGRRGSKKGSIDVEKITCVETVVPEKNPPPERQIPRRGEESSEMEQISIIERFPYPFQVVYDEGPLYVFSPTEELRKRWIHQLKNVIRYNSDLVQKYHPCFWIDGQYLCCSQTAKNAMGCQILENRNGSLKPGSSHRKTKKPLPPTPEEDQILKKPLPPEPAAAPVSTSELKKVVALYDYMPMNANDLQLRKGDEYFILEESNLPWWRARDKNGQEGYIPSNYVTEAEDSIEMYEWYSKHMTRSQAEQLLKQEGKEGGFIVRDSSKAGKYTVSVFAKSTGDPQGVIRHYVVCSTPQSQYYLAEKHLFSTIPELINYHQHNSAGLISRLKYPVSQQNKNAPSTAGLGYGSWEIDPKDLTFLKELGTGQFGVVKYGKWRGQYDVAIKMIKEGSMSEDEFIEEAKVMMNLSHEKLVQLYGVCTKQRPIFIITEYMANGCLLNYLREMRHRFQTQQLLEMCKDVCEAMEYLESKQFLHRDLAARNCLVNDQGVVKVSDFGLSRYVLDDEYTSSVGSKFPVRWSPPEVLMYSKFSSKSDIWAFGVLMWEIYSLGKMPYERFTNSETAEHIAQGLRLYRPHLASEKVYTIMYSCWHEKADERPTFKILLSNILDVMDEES
Sequence of Angiopoietin-1 receptor (Homo sapiens) (Q02763 whole entry): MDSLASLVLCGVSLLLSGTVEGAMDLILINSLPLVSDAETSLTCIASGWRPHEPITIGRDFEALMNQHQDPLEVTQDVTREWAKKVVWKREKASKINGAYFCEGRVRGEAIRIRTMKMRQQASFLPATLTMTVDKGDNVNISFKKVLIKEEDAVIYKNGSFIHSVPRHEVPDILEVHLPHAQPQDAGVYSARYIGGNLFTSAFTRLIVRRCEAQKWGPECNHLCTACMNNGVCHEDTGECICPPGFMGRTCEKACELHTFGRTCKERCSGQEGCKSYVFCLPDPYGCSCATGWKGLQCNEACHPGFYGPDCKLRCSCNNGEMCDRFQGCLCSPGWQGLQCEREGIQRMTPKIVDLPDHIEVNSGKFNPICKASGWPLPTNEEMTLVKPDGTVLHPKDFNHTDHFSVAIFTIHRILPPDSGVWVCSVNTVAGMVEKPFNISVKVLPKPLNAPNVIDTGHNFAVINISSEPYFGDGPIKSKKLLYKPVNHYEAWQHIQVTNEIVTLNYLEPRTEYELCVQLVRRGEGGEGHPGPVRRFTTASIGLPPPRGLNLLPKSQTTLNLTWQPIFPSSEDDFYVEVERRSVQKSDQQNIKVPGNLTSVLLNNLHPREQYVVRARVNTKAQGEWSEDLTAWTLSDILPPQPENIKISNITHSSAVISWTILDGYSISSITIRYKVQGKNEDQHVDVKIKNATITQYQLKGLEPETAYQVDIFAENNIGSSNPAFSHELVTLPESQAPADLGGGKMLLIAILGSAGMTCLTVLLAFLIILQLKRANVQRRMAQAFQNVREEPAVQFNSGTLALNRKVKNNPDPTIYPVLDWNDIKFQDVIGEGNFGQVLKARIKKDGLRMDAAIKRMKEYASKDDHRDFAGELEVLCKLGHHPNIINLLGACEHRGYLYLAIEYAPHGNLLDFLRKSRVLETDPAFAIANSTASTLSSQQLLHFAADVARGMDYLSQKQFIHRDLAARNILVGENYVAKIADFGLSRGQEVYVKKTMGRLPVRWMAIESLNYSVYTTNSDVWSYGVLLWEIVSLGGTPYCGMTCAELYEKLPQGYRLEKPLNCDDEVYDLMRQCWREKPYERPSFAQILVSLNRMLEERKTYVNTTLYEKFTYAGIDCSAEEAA
Sequence of Protein kinase C theta type (Homo sapiens) (Q04759 whole entry, looked up): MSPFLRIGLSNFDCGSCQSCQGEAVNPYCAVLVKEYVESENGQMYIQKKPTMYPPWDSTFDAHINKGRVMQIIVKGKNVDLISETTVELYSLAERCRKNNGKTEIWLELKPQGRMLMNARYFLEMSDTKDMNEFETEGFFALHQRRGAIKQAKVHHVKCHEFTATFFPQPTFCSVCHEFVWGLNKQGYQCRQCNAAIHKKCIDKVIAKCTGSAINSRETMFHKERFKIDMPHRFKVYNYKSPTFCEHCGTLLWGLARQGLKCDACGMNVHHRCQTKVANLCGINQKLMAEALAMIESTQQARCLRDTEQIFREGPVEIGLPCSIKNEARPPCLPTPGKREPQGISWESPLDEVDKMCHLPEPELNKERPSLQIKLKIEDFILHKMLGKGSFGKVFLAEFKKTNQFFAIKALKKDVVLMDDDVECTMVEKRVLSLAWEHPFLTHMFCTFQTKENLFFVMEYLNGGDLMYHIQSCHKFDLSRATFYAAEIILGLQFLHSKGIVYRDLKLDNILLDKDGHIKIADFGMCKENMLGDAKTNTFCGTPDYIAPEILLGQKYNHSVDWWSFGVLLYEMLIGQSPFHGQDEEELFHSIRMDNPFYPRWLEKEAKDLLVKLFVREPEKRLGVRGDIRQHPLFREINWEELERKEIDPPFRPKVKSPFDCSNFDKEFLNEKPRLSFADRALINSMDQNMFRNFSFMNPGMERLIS
Sequence of Protein kinase C epsilon type (Homo sapiens) (Q02156 whole entry): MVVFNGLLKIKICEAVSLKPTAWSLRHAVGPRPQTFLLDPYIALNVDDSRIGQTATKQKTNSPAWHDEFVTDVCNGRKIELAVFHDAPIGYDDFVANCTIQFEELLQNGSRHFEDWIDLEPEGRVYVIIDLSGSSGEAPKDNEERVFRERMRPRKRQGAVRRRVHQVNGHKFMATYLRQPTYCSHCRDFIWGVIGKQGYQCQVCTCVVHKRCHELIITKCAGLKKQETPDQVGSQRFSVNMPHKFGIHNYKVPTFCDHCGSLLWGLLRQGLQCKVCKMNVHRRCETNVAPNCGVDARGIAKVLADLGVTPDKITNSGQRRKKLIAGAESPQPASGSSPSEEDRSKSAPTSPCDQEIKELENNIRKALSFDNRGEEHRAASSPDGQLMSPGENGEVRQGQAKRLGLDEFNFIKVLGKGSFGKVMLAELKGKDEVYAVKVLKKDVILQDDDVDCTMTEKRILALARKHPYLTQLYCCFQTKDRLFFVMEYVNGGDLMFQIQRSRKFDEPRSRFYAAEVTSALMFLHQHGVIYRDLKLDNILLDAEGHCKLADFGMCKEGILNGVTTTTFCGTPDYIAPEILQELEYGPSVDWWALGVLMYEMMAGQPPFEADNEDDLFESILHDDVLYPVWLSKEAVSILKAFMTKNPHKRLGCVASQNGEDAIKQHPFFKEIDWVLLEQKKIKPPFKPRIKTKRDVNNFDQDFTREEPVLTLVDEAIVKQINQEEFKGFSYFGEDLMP

CC(C)(O)[C@H](F)CN1Cc2cc(NC(=O)c3cnn4cccnc34)c(N3CCOCC3)cc2C1=O
inhibition [1]: -5.5%
inhibition [2]: -6.56%
inhibition [3]: -2.64%
inhibition [4]: -0.5%
IC50 [5]: 680 nM
inhibition ([5]; Compound concentration 1.0 uM): 86.3%
inhibition [6]: 10.5%
inhibition [7]: 12.5%
inhibition [8]: 2.5%
inhibition [9]: 19.5%
inhibition [10]: 13%
inhibition [11]: 12%
inhibition [12]: 1.93%
inhibition [13]: 20%
inhibition [14]: 1%
inhibition [15]: 11%
inhibition [16]: 36.5%
inhibition [17]: 6.5%
inhibition [18]: 9.09%
inhibition [19]: 13.3%
inhibition [20]: -2.71%
inhibition [21]: 12.5%
inhibition [22]: 13%
inhibition [23]: 1.5%
inhibition [24]: 42%
inhibition [25]: 23%
inhibition [26]: 4%
inhibition [27]: 2.5%
inhibition [28]: 23.8%
inhibition [29]: 21%
inhibition [30]: 13%
inhibition [31]: 7.5%
inhibition [32]: 5.5%
inhibition [33]: 25.3%
inhibition [34]: 1.5%
inhibition [35]: 1%
IC50 (Misshapen-like kinase 1): 879 nM
inhibition (Misshapen-like kinase 1; Compound concentration 1.0 uM): 80.5%
EC50 [36]: 3 nM (active)
IC50 [36]: 3.3 nM (active)
inhibition [37]: 2.5%
inhibition [38]: 2.5%
inhibition [39]: -6%
inhibition [40]: 18.5%
inhibition [41]: 8.5%
inhibition [42]: 55.3%
inhibition [43]: 1.5%
inhibition [44]: 1.48%
inhibition [45]: 41.3%
inhibition [46]: 9.11%
inhibition [47]: 17%
inhibition [48]: 13%
inhibition [49]: 5.5%
inhibition [50]: 7.5%

Source: ChEMBL document CHEMBL4879554, “Data for DCP probe GNE-2256” (2021)
